The source of these data is patent US12178940B2, “Controlled hydrogel delivery of focal adhesion kinase inhibitor for decreased scar formation” (THE BOARD OF TRUSTEES OF THE LELAND STANFORD JUNIOR …, priority 2018, dated 2024).

Structures can show the parent of a compound that is named as a salt. Where two headings read alike, the source gives them in different places.

In one series the target is FAK (Homo sapiens, UniProt Q05397). Conditions: class symbols of Table 1, legend not given; cited from earlier work.
Sequence of FAK (Q05397 whole entry, species assumed): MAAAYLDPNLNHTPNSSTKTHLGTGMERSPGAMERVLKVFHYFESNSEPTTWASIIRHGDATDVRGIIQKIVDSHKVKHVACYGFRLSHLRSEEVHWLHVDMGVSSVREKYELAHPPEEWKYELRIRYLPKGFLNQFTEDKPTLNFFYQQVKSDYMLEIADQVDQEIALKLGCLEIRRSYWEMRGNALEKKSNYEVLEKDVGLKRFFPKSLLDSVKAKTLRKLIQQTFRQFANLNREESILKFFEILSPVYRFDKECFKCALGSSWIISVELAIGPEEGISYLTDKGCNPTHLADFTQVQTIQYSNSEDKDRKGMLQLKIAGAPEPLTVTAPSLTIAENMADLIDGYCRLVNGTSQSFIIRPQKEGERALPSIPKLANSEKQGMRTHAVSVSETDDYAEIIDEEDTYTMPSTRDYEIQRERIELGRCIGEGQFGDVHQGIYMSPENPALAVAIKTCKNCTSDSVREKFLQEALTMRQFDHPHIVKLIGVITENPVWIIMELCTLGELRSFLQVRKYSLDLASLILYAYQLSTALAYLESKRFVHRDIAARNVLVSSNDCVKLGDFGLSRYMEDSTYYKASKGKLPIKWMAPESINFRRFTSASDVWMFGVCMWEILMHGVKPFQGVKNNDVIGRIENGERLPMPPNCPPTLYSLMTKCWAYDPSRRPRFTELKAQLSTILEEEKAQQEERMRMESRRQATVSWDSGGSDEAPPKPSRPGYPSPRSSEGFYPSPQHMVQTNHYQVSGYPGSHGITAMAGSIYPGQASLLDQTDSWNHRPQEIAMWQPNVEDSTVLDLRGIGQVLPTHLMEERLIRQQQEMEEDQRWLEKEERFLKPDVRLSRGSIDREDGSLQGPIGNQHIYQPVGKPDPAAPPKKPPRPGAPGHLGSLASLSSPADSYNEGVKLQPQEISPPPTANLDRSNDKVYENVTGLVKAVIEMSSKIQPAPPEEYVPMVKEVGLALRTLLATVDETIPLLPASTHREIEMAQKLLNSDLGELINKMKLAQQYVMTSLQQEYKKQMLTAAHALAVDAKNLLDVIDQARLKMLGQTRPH
The subject of a further series is Other Targets. Conditions: Table 1; cited from earlier work.
The test system of a further series is incisional HTS model. The note with it: intradermal injection; cited from earlier work.
For a further series, the system named is murine dorsal incisions. The series is classed as in vivo. Conditions: daily local subcutaneous injection. On the procedure:
Hypertrophic scar model and local subcutaneous injection of FAKI: Incisional wounding and development of hypertrophic scars on the dorsum of mice were performed by previously described methods (Aarabi et al., 2007; Wong et al., 2011a). Animals were randomly assigned to receive 15, 75, or 150 μM concentrations of FAKI dissolved in 10% DMSO via daily local subcutaneous injection adjacent to the wound site. […] Specimens were harvested at Day 14 post-injury for histology and scar areas were quantified (FIG. 6).

The subject of a further series is advanced solid tumors. The note with it: cited from earlier work.

For `CC(C)=CCC/C(C)=C/CC/C(C)=C/CC/C(C)=C/CC/C(C)=C/CC/C(C)=C/CC/C(C)=C/CC/C(C)=C/CC/C(C)=C/CO` [Solanesol], on FAK, the FAK entry is “✓”.
Take `CNC(=O)c1ccccc1Nc1nc(Nc2ccc(N3CCOCC3)cc2OC)ncc1Cl` [TAE226]: the “Other Targets” value in the series on Other Targets is “Insulin Receptor, IGF-1R, c-Met”.
On to `CS(=O)(=O)c1cccc(CNc2nc(Nc3ccc4c(c3)CCC(=O)N4)ncc2C(F)(F)F)c1` [PF-573228], for which, in the series with incisional HTS model, the inflammatory chemokine pathways entry is listed as “suppressed inflammatory chemokine pathways” and the scarring in vivo result is listed as “attenuated scarring”.
Turning to `CN(c1ncccc1CNc1nc(Nc2ccc3c(c2)CC(=O)N3)ncc1C(F)(F)F)S(C)(=O)=O` [PF-562271], in the series on murine dorsal incisions (15 μM FAKI in 10% DMSO), the “scar lesions (Masson's Trichrome)” value was “reduced scar lesions”. Besides, in the series on murine dorsal incisions (75 μM FAKI in 10% DMSO), the “scar lesions (Masson's Trichrome)” value is on record as “reduced scar lesions”. Further, in the series with advanced solid tumors (clinical trials), the “efficacy in treatment of advanced solid tumors” value was “proven effective” and the “pharmacokinetics in clinical trials” value is recorded as “desired pharmacokinetics”. Further, the “reason for discontinuation as an anti-cancer agent” value in the series on advanced solid tumors (dosed orally) is “potential drug-drug interactions”. The major systemic toxicities result in the series on advanced solid tumors (oral administration, clinical trials) was “nausea/vomiting and gastrointestinal-related adverse effects”.
For the compound `CC(=O)NCC(=O)N1[C@@H]2CC[C@H]1c1ccc(Nc3ncc(C(F)(F)F)c(NC4CCC4)n3)cc12` [PF-03814735], the “Other Targets” value in the series on Other Targets is given as “Aurora A, Aurora B, FLT1”.
For `CN(c1ncccc1CNc1nc(Nc2ccc3c(c2)CC(=O)N3)ncc1C(F)(F)F)S(C)(=O)=O` [PF-562271 HCl], the “Other Targets” value with Other Targets is “CDK2/ CyclinE,CDK3/ CyclinE,CKD1/ CyclinB”.
Take `CNC(=O)c1ccc(Nc2ncc(C(F)(F)F)c(NCc3nccnc3N(C)S(C)(=O)=O)n2)cc1` [Defactinib]: the FAK result at FAK is reported as “✓”. The “efficacy in treatment of advanced solid tumors” value in the series on advanced solid tumors (clinical trials) is “proven effective”.
